# From patent US20190209581A1, “DOSAGE REGIMEN FOR TREATMENT OF SOLID TUMORS” (Eli Lilly and Company, priority 2016, published 2019)
# Legend:
# [1] = test system: Sprague Dawley rats; assay: Toxicity study in rats, oral gavage, daily or 3 times/week for 2 weeks; assay type: in vivo
# Protocol: A study is carried out to assess the toxicity and toxicokinetics of 4,4,4-Trifluoro-N-[(1S)-2-[[(7S)-5-(2-hydroxyethyl)-6-oxo-7H-pyrido[2,3-d][3]benzazepin-7-yl]amino]-1-methyl-2-oxo-ethyl]butanamide in rats given oral gavage doses of 0, 1.3, or 4.3 mg/kg once daily for 2 weeks or 1, 3, 10, or 30 mg/kg 3 times/week for 2 weeks.
# 4,4,4-Trifluoro-N-[(1S)-2-[[(7S)-5-(2-hydroxyethyl)-6-oxo-7H-pyrido[2,3-d][3]benzazepin-7-yl]amino]-1-methyl-2-oxo-ethyl]butanamide is combined with a vehicle comprising 1% carboxymethylcellulose sodium, 0.25% polysorbate 80 and 0.05% Dow Corning® Antifoam 1510-US in purified water. Sprague Dawley CD®/IGS rats (crl:CD(SD)), International Genetic Standardization (IGS) 7-9 week old rats, 3/sex/group, Charles River Laboratories, Inc, are used for the study. Animals are fed ad libitum with 12 hours light, 12 hours dark cycle maintained in ventilated stainless-steel racks at an ambient temperature of 22.2+/[…] and relative humidity of 30% to 70%. The test compound is dosed according to Table 1. The test compound is administered by oral gavage in a volume of 10 mL/kg body weight. The duration of the study for all groups is 14 days.
# Observations, at a minimum, for Groups 01, 06 and 07 are recorded daily before dosing, approximately one (1) hour postdose, and in the afternoon except afternoon observations are not recorded on weekends. Observations for Groups 02, 03, 04, and 05 are recorded beginning on Day 3. At a minimum, observations are recorded as described on dosing days. On non-dosing days, observations are recorded at approximately the same time as for groups receiving daily doses. Animals are weighed on Days 1, 3, 6, 10, and 14. Terminal body weights are collected at scheduled necropsy. Food consumption weights are recorded on Days 1, 3, 6, 10, and 14.
# [2] = test system: HCT 116 human colorectal cell line; assay: Tumor growth inhibition, HCT 116 xenograft; assay type: in vivo; details: HCT 116 in mice, oral 8 mg/kg, (Mon, Wed, Fri)x4; p <0.05 to <0.01
# Protocol: To evaluate in vivo efficacy and effect of 4,4,4-Trifluoro-N-[(1S)-2-[[(7S)-5-(2-hydroxyethyl)-6-oxo-7H-pyrido[2,3-d][3]benzazepin-7-yl]amino]-1-methyl-2-oxo-ethyl]butanamide on inhibition of Notch processing pharmacodynamics (PD), several cell lines- and patient-derived xenograft models are used. A2780 is a human ovarian cell line (Sigma-Aldrich, No. 93112519); SW480 is a human colorectal cell line (ATCC No. CCL-228); HCT 116 is a human colorectal cell line (ATCC No. CCL-247); U-87 MG is a human glioblastoma cell line (ATCC No. HTB-14); A375 is a human malignant melanoma cell line (ATCC No. CRL-1619); K-562 is a human chronic myelogenous leukemia (CML) cell line characterized by the presence of a fusion transcript comprised of the Bcr and Abl1 genes (ATCC No. CCL-243); Jurkat; HEL 92.1.7 is a human erythroleukemia cell line (ATCC No. TIB-180). […] Tumor growth and body weight are monitored over time to evaluate efficacy and signs of toxicity. Bidimensional measurements of tumors are performed twice a week and tumor volumes are calculated based on the following formula: (Tumor Volume)=[(L)×(W2)×(Π/6)] where L is mid-axis length and W is mid-axis width. […] The log volume data are analyzed with a two-way repeated measures analysis of variance by time and treatment using the MIXED™ procedures in SAS™ software (version 8.2). […]
smiles,measurement,setting,value
"C[C@H](NC(=O)CCC(F)(F)F)C(=O)N[C@@H]1C(=O)N(CCO)c2ncccc2-c2ccccc21 [Compound 1, 4,4,4-trifluoro-N-[(1S)-2-[[(7S)-5-(2-hydroxyethyl)-6-oxo-7H-pyrido[2,3-d][3]benzazepin-7-yl]amino]-1-methyl-2-oxo-ethyl]butanamide]",Tolerability of once daily administration at same total weekly dose,"[1]; rat, in vivo",once daily administration is not tolerated
same,"Compound related toxicities, kidney","[1]; rat, in vivo, 10 mg/kg",minimal to slight renal tubular degeneration
same,"Gastrointestinal toxicity, daily versus three times/week at same total weekly dose","[1]; rats, 1.3 mg/kg daily or 3 mg/kg three times/week, 4.3 mg/kg daily or 10 mg/kg three times/week",more severe gastrointestinal toxicity with daily dosing compared to three times/week dosing
same,Survival,"[1]; rats, 2 of 3 female TK animals, daily doses of 1.3 mg/kg",euthanized on Day 10 due to poor condition
same,Survival,"[1]; rats, TK animals, daily doses of 4.3 mg/kg","found dead on Days 7, 8, or 10"
same,Survival,"[1]; rats, all non-TK, male TK and 1 of 3 female TK animals, daily doses of 1.3 mg/kg",survived until the scheduled study termination
same,Survival,"[1]; rats, all non-toxicokinetic animals, 30 mg/kg 3 times/week",euthanized on Day 10 due to poor condition
same,Survival,"[1]; rats, animals given daily doses of 4.3 mg/kg (other than TK)",euthanized on Day 10 due to poor condition
same,Survival,"[1]; rats, non-TK animals given ≤10 mg/kg and TK animals given ≤3 mg/kg 3 times/week",survived until the scheduled study termination
same,Survival,"[1]; rats, two of three TK animals, 10 mg/kg 3 times/week",euthanized on Day 10 due to poor condition and the remaining TK animal was found dead prior to the 48 hr TK time point on Day 16
same,% TGI,[2],37.58 (<0.05 to %
